These results are taken from patent US9499553B2 (CHUGAI SEIYAKU KABUSHIKI KAISHA, priority 2013, dated 2016).

The target in one assay is T1, human PiT-2 (Homo sapiens, UniProt Q08357).
T1 construct: expressed in transfected cells; host or cells: CHO cells
T1 sequence (Q08357 1-652): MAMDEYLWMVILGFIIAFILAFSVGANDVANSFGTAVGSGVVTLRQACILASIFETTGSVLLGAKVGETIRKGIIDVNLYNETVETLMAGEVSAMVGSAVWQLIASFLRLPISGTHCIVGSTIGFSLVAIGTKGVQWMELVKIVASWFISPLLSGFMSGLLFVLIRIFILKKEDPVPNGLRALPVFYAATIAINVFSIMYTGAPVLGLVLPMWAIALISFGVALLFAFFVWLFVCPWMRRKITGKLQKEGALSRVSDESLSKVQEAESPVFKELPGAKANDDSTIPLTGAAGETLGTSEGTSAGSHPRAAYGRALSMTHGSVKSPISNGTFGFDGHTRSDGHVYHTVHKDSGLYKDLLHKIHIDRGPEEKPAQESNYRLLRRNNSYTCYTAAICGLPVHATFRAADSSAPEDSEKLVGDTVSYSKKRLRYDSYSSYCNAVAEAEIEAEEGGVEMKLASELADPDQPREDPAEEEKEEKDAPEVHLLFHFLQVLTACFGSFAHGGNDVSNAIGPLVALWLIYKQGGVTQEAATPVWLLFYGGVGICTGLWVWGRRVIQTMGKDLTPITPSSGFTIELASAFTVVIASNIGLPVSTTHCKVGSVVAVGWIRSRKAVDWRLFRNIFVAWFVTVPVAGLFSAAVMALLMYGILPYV
In words: Inhibitory effect on 33PO4 uptake into human PiT-2-expressing CHO cells. The class given is cell-based. Particulars: pH 6.5, read-out: IC50 against 33PO4 uptake into human PiT-2-expressing cells. In short, it runs like this: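 CHO cells transfected with human PiT-2 or empty vector, then exposed to ^33PO4 at room temperature after compound preincubation. Uptake counted by scintillation. Inhibition computed from PiT-2 minus vector-cell uptake, relative to the DMSO control.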

The target of a further assay is T2, human NaPi-IIb (Homo sapiens, UniProt O95436).
T2 construct: expressed in transfected cells
T2 sequence (O95436 1-690): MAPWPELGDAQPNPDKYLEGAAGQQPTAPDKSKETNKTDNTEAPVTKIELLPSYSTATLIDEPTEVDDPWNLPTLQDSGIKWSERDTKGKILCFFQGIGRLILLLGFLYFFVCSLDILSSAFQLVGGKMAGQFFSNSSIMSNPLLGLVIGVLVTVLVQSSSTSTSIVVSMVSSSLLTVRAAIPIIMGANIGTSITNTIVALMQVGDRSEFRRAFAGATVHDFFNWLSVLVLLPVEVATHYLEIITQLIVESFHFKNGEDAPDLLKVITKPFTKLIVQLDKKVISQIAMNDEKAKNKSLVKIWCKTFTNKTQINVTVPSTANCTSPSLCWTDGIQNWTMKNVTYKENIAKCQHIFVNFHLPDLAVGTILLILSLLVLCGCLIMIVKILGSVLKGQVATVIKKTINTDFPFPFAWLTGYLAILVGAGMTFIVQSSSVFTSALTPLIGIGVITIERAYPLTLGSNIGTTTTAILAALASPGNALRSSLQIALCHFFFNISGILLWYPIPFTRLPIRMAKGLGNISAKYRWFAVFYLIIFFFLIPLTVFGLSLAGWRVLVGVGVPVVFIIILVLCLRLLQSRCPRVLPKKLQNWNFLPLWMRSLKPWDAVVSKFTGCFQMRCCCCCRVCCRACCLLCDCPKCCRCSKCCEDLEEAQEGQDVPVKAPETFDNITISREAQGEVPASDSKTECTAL
In words: Inhibitory effect on 33PO4 uptake into human NaPi-IIb-expressing CHO cells. The class given is cell-based. Particulars: read-out: IC50. In a few lines: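 Uptake of ³³PO4 was measured by scintillation counting after ice-cold buffer A washes. Cells were CHO stably expressing human NaPi-IIb, seeded overnight, and exposed to ³³PO4 in buffer A at room temperature.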

Broadly, the IC50 is the concentration that gives 50% inhibition. With `COCCN(C)CCOc1ccc(CN2C(=O)C(C(=O)Nc3ccc(C(F)(F)F)cc3-c3cc(C(F)(F)F)ncn3)=C(O)C3(CCCC3)N2C)c(F)c1F` [Example 14, 7-[[2,3-Difluoro-4-[2-[2-methoxyethyl(methyl)amino]ethoxy]phenyl]methyl]-10-hydroxy-6-methyl-8-oxo-N-[4-(trifluoromethyl)-2-[6-(trifluoromethyl)pyrimidin-4-yl]phenyl]-6,7-diazaspiro[4.5]dec-9-ene-9-carboxamide], the results for the half-inhibitory concentration (IC50) at human PiT-2 and at human NaPi-IIb were 2.6 µM and 8.9 µM, respectively.
